Biological target: T1, human OT receptor (Homo sapiens, UniProt P30559)
T1 construct: expressed in transfected cells; host or cells: mammalian cell line, e.g. Chinese hamster ovary (CHO), stably or transiently transfected; co-transfected with a firefly luciferase reporter (e.g. NFAT promoter)
T1 sequence (P30559 1-389): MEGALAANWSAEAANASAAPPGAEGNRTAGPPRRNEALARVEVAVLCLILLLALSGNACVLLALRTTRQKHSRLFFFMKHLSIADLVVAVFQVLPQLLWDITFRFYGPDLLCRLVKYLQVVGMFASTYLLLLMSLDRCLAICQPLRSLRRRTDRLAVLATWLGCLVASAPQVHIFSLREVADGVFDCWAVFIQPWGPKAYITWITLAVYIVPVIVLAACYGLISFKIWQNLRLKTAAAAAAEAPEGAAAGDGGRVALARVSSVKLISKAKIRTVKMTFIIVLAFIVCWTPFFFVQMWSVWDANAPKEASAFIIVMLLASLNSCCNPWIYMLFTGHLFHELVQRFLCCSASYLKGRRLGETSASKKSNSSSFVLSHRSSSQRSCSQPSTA
Assay: human OT receptor agonist assay, luciferase reporter (NFAT promoter) in transfected CHO cells
Assay type: cell-based
Details: for EC50: concentration at which the response is 50% of the maximum, 4-parameter logistic fit, luciferase reporter in cells expressing the human OT receptor; for OT (efficacy): maximal efficacy compared to the maximal stimulation observed with OT
Experimental: In addition, the cells are transfected with a gene for firefly luciferase under the control of a suitable promoter, e.g. NFAT promoter. Contact of the OT receptor by an agonist leads to stimulation of luciferase synthesis, the extent of which is measured using commercially available reagents. Concentrations at which the response is 50% of the maximum are calculated by fitting of data to 4-parameter logistic curves. Maximal efficacy is calculated compared to the maximal stimulation observed with OT.

Structure (SMILES) | EC50 | OT (efficacy)
Cc1cc(C(=O)N2Cc3cnn(C)c3Nc3ccccc32)ccc1CNC(=O)N1CCN(Cc2cccc(C(=S)N(C)C)c2)CC1 [Example 6, 4-(3-Dimethylthiocarbamoyl-benzyl)-piperazine-1-carboxylic acid 2-methyl-4-(3-methyl-4,10-dihydro-3H-2,3,4,9-tetraaza-benzo[f]azulene-9-carbonyl)-benzylamide] | 190 nM | 21%
Cn1ncc2c1Nc1ccccc1N(C(=O)c1ccc(CNC(=O)N3CCN(Cc4cc(O)cc(O)c4)CC3)c(F)c1)C2 [Example 4, 4-(3,5-Dihydroxy-benzyl)-piperazine-1-carboxylic acid 2-fluoro-4-(3-methyl-4,10-dihydro-3H-2,3,4,9-tetraaza-benzo[f]azulene-9-carbonyl)-benzylamide] | 74 nM | 51%
Cc1cc(C(=O)N2Cc3cnn(C)c3Nc3ccccc32)ccc1CNC(=O)N1CCN(Cc2cc(O)cc(O)c2)CC1 [Example 1, 4-(3,5-Dihydroxy-benzyl)-piperazine-1-carboxylic acid 2-methyl-4-(3-methyl-4,10-dihydro-3H-2,3,4,9-tetraaza-benzo[f]azulene-9-carbonyl)-benzylamide] | – | 76%
Cn1ncc2c1Nc1ccccc1N(C(=O)c1ccc(CNC(=O)N3CCN(Cc4cc(O)cc(O)c4)CC3)cc1Cl)C2 [Example 3, 4-(3,5-Dihydroxy-benzyl)-piperazine-1-carboxylic acid 3-chloro-4-(3-methyl-4,10-dihydro-3H-2,3,4,9-tetraaza-benzo[f]azulene-9-carbonyl)-benzylamide] | 58 nM | 41%

Now from value to compound:

EC50 | OT (efficacy) | Structure (SMILES)
33 nM | 13% | Cc1cc(C(=O)N2Cc3cnn(C)c3Nc3ccccc32)ccc1CNC(=O)N1CCN(Cc2cccc(C(=O)N(C)C)c2)CC1 [Example 5, 4-(3-Dimethylcarbamoyl-benzyl)-piperazine-1-carboxylic acid 2-methyl-4-(3-methyl-4,10-dihydro-3H-2,3,4,9-tetraaza-benzo[f]azulene-9-carbonyl)-benzylamide]
24 nM | 16% | Cc1cc(C(=O)N2Cc3cnn(C)c3Nc3ccccc32)cc(C)c1CNC(=O)N1CCN(Cc2cc(O)cc(O)c2)CC1 [Example 2, 4-(3,5-Dihydroxy-benzyl)-piperazine-1-carboxylic acid 2,6-dimethyl-4-(3-methyl-4,10-dihydro-3H-2,3,4,9-tetraaza-benzo[f]azulene-9-carbonyl)-benzylamide]
